Where a name gives a salt, the structure may show the parent alone. Read-outs that look alike come from different tables or passages of the source.
What was measured:
OPM2 = assay: Anti-proliferative effect (CellTiter-Glo, 72 h), OPM2; type: cell-based; details: OPM2 cells, median, read-out: IC50 antiproliferation assay OPM2 [M] (median)
In short: (§1)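 Luminescence from CellTiter-Glo, read 10 min after reagent addition, reports viable cell content after 72 h of compound treatment at 37 °C. A reference plate read at day 0 gives the starting baseline.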

BCL-2 = biological target: T1, BCL-2 (Homo sapiens, UniProt P10415); assay: Protein-protein interaction assay BCL-2/Bad BH3 peptide (BCL-2 assay), TR-FRET; type: binding; details: His-BCL-2 / Bad BH3-derived peptide, median
T1 construct: BCL-2 (amino acids 1-211, C-terminal fused to a hexahistidine (6×His) tag); purchased BPS Bioscience (San Diego, Calif., USA); host or cells: E. coli
Description: Protein-Protein Interaction Assay: BCL-2/Bad BH3 Peptide (BCL-2 Assay)
The dose-dependent inhibition by the compounds described in this invention of the interaction between BCL-2 and the BH3 domain of Bad (both human) was determined using a steady state binding competition assay with time-resolved fluorescence energy transfer (TR-FRET) readout. For that purpose BCL-2 (amino acids 1-211, C-terminal fused to a hexahistidine (6×His) tag and a synthetic Bad BH3-derived peptide of sequence Biotin-PEG2-PEG2-NLWAAQRYGRELRR-Nle-SDEFVDSFKK-amide (SEQ ID NO: 2) served as protein receptor and tracer ligand respectively. The recombinant BCL-2 protein (expressed in E. coli) was purchased from BPS Bioscience (San Diego, Calif., USA). The Bad BH3-derived peptide can be obtained from e.g. Biosyntan (Berlin, Germany).
In the assay 11 different concentrations of each compound (0.1 nM, 0.33 nM, 1.1 nM, 3.8 nM. 13 nM, 44 nM, 0.15 μM, 0.51 μM, 1.7 μM, 5.9 μM and 20 μM) were typically measured as duplicates in the same microtiter plate. For that, 100-fold concentrated DMSO solutions were prepared by serial dilutions (1:3.4) of a 2 mM stock solution in a clear, 384-well microtiter plate (Greiner Bio-One, Frickenhausen, Germany). From there, 50 nl were transferred in a dark test plate (Greiner Bio-One. Frickenhausen, Germany). The assay was initiated by addition of 2 μl of a 2,5-fold concentrated His-BCL-2 solution (usually for a 1 nM end concentration in 5 μl reaction volume) in aqueous assay buffer [50 mM Tris/HCl pH 7, 100 mM sodium chloride (NaCl), 50 mM potassium fluoride (KF), 0.005% Tween-20, 2 mM DTT, 0.1% bovine gamma globulin (BGG)] to the compounds in the assay plate. This was followed by a 10-minute incubation step at 22° C. for pre-equilibration of the putative complex between His-BCL-2 and the compounds.
The mixture was incubated in the dark for one hour at 22° C. and then overnight at 4° C. The formation of BCL-2/Bad complexes was determined by measuring the resonance energy transfer of the anti-His-Eu-cryptate antibody to the streptavidin-XL665 present in the reaction. For that purpose, the fluorescence emission at 620 nm and 665 nm after excitation at 330-350 nm was measured in a TR-FRET measuring instrument, for instance a Rubystar or a Pherastar (both from BMG Lab Technologies. Offenburg, Germany) or a Viewlux (Perkin-Elmer). The ratio of the emission at 665 nm and at 622 nm was used as indicator of the amount of BCL-2/Bad complexes present.
The resulting data (ratio) were normalized, taking 0% inhibition as the mean value of control measurements (usually 32 data points) where all reagents were included. In this case 50 nl DMSO were used instead of compounds. A 100% inhibition corresponded to the mean value of control measurements (usually 32 data points) where all reagents except BCL-2 were included. IC50 values were determined by regression analysis based on a 4 parameter equation (minimum, maximum, IC50, Hill; Y=Max+(Min−Max)/(1+(X/IC50)^Hill) using the Screener Software (Genedata).

SUDHL10 = assay: Anti-proliferative effect (CellTiter-Glo, 72 h), SUDHL10; type: cell-based; details: SUDHL10 cells, antiproliferation, 72 h incubation, median, read-out: Antiproli SUDHL10 [M] (median)
In short: as §1

T1 sequence (P10415 1-211): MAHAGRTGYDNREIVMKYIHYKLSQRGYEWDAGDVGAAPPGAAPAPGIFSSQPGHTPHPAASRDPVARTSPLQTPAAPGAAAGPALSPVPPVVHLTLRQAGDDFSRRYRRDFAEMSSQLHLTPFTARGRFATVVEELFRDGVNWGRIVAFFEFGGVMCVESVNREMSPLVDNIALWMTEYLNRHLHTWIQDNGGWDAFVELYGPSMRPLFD

Row | SMILES | IC50 (BCL-2) [µM] | IC50 (SUDHL10; Homo sapiens, SU-DHL10, 72 h) [M] | IC50 (SUDHL10) [M] | IC50 (OPM2; Homo sapiens, OPM-2, 72 h) [M] | IC50 (OPM2) [M]
1 | Cc1nn(C)c2c1-c1cccc3c(CCCOc4cccc5cc(F)ccc45)c(C(=O)O)n(c13)CCCCOC2 (single isomer, unassigned; enantiomer 1) [Example 019, 7-{3-[(6-fluoronaphthalen-1-yl)oxy]propyl}-1,3-dimethyl-1,10,11,12,13,15-hexahydropyrazolo[4′,3′:9,10][1,6]oxazacycloundecino[8,7,6-hi]indole-8-carboxylic Acid-N-ethylethanamine Salt (Enantiomer 1)] | > 20 | 4.45e-06 |  |  | 
2 | Cc1nn(C)c2c1-c1cccc3c(CCCOc4cccc5cc(Cl)ccc45)c(C(=O)O)n(c13)CCCCOC2 (single isomer, unassigned; enantiomer 1) [Example 041, 7-{3-[(6-chloronaphthalen-1-yl)oxy]propyl}-1,3-dimethyl-1,10,11,12,13,15-hexahydropyrazolo[4′,3′:9,10][1,6]oxazacycloundecino[8,7,6-hi]indole-8-carboxylic acid-N-ethylethanamine Salt (Enantiomer 1)] | > 20 |  |  |  | 
3 | Cc1ccc2c(CCCOc3cccc4ccccc34)c(C(=O)O)n3c2c1-c1c(nn(C)c1C)CN(C)CCC3 (single isomer, unassigned; enantiomer 1) [Example 073, 7,10,11,12-tetramethyl-1-[3-(naphthalen-1-yloxy)propyl]-4,5,6,7,8,10-hexahydropyrazolo[3′,4′:7,8][1,5]diazecino[9,10,1-hi]indole-2-carboxylic Acid (Enantiomer 1)] | > 20 | 6.86e-06 |  |  | 
4 | CCn1nc2c(c1C1CC1)-c1cccc3c(CCCOc4cccc5ccccc45)c(C(=O)O)n(c13)CCCCOC2 (single isomer, unassigned; enantiomer 1) [Example 082, 3-cyclopropyl-2-ethyl-7-[3-(naphthalen-1-yloxy)propyl]-2,10,11,12,13,15-hexahydropyrazolo[4′,3′:9,10][1,6]oxazacycloundecino[8,7,6-hi]indole-8-carboxylic acid-N-ethylethanamine Salt (Enantiomer 1)] | > 20 | 7.79e-06 |  |  | 
5 | COCCn1nc2c(c1C1CC1)-c1cccc3c(CCCOc4cccc5ccccc45)c(C(=O)O)n(c13)CCCCOC2 (single isomer, unassigned; enantiomer 1) [Example 085, 3-Cyclopropyl-2-(2-methoxyethyl)-7-[3-(naphthalen-1-yloxy)propyl]-2,10,11,12,13,15-hexahydropyrazolo[4′,3′:9,10][1,6]oxazacycloundecino[8,7,6-hi]indole-8-carboxylic acid-N-ethylethanamine Salt (Enantiomer 1)] | > 20 |  | 3.08e-06 |  | 
6 | Cc1c2c(nn1C1CC1)COCCCCn1c(C(=O)O)c(CCCOc3cccc4ccccc34)c3cccc-2c31 (single isomer, unassigned; enantiomer 1) [Example 093, 2-cyclopropyl-3-methyl-7-[3-(naphthalen-1-yloxy)propyl]-2,10,11,12,13,15-hexahydropyrazolo[4′,3′:9,10][1,6]oxazacycloundecino[8,7,6-hi]indole-8-carboxylic acid-N-ethylethanamine Salt (Enantiomer 1)] | > 20 | 1.03e-05 |  |  | 
7 | COCCn1nc2c(c1C)-c1cccc3c(CCCOc4cccc5ccccc45)c(C(=O)O)n(c13)CCCCOC2 (single isomer, unassigned; enantiomer 1) [Example 107, 2-(2-methoxyethyl)-3-methyl-7-[3-(naphthalen-1-yloxy)propyl]-2,10,11,12,13,15-hexahydropyrazolo[4′,3′:9,10][1,6]oxazacycloundecino[8,7,6-hi]indole-8-carboxylic acid-N-ethylethanamine Salt (Enantiomer 1)] | > 20 |  | 5.32e-06 |  | 

Now from value to molecule, other results behind:

Row | IC50 (BCL-2) [µM] | IC50 (SUDHL10; Homo sapiens, SU-DHL10, 72 h) [M] | IC50 (SUDHL10) [M] | SMILES | IC50 (OPM2; Homo sapiens, OPM-2, 72 h) [M] | IC50 (OPM2) [M]
8 | > 20 | 6.09e-06 |  | Cc1c2c(nn1C)COCCCCn1c(C(=O)O)c(CCCOc3cccc4ccccc34)c3cccc-2c31 (racemic) [Example 1-36, (rac)-2,3-dimethyl-7-[3-(naphthalen-1-yloxy)propyl]-2,10,11,12,13,15-hexahydropyrazolo[4′,3′:9,10][1,6]oxazacycloundecino[8,7,6-hi]indole-8-carboxylic Acid] | 1.01e-05 | 
9 | > 20 | 2.17e-05 |  | Cc1nn(C)c2c1-c1cccc3c(CCCOc4cccc5ccccc45)c(C(=O)O)n(c13)CCCCOCC2 (racemic) [Example 017, (rac)-1,3-dimethyl-7-[3-(1-naphthyloxy)propyl]-10,11,12,13,15,16-hexahydro-1H-pyrazolo[4′,3′:9,10][1,6]oxazacyclododecino[8,7,6-hi]indole-8-carboxylic Acid] | 2.78e-05 | > 3.3e-05
10 | > 20 | 1.3e-05 |  | Cc1ccc2c(CCCOc3cccc4c3CCCC4)c(C(=O)O)n3c2c1-c1c(C)nn(C)c1COCCCC3 (racemic) [Example 039, (rac)-1,3,4-trimethyl-7-[3-(5,6,7,8-tetrahydronaphthalen-1-yloxy)propyl]-110,11,12,13,15-hexahydropyrazolo[4′3′:9,10][1,6]oxazacycloundecino[8,7,6-hi]indole-8-carboxylic Acid] |  | 
11 | > 20 | 6.99e-06 |  | CC(C)c1c2c(nn1C)CN(C)CCCn1c(C(=O)O)c(CCCOc3cccc4ccccc34)c3cccc-2c31 (racemic) [Example 113, (rac)-7,10-dimethyl-1-[3-(naphthalen-1-yloxy)propyl]-11-(propan-2-yl)-4,5,6,7,8,10-hexahydropyrazolo[3′,4′:7,8][1,5]diazecino[9,10,1-hi]indole-2-carboxylic Acid] | 1.42e-05 | 
12 | > 20 | 1e-05 |  | CCc1c2c(nn1C)CN(C)CCCn1c(C(=O)O)c(CCCOc3cccc4ccccc34)c3cccc-2c31 (racemic) [Example 141, (rac)-11-ethyl-7,10-dimethyl-1-[3-(1-naphthyloxy)propyl]-4,5,6,7,8,10-hexahydropyrazolo[3′,4′:7,8][1,5]diazecino[9,10,1-hi]indole-2-carboxylic Acid] | 9.12e-06 | 
13 | > 20 | 5.89e-06 |  | CCc1c2c(nn1C)CN(C)CCCn1c(C(=O)O)c(CCCOc3cccc4ccccc34)c3ccc(C)c-2c31 (racemic) [Example 144, (rac)-11-ethyl-7,10,12-trimethyl-1-[3-(1-naphthyloxy)propyl]-4,5,6,7,8,10-hexahydropyrazolo[3′,4′:7,8][1,5]diazecino[9,10,1-hi]indole-2-carboxylic Acid] | 5.52e-06 | 
14 | > 20 | 4.09e-06 |  | CCc1c2c(nn1C)COCCCCn1c(C(=O)O)c(CCCOc3cccc4ccccc34)c3ccc(C)c-2c31 (racemic) [Example 153, (rac)-3-Ethyl-2,4-dimethyl-7-[3-(1-naphthyloxy)propyl]-2,10,11,12,13,15-hexahydropyrazolo[4′,3′:9,10][1,6]oxazacycloundecino[8,7,6-hi]indole-8-carboxylic Acid] | 8.4e-06 | 
15 | > 20 | 1.17e-05 |  | CC(C)OCc1nn(C)c2c1-c1cccc3c(CCCOc4cccc5ccccc45)c(C(=O)O)n(c13)CCCCN(C)C2 (single isomer, unassigned) [Example 1-74, 1,14-dimethyl-7-[3-(naphthalen-1-yloxy)propyl]-3-[(propan-2-yloxy)methyl]-10,11,12,13,14,15-hexahydro-1H-pyrazolo[3′,4′:8,9][1,6]diazacycloundecino[10,11,1-hi]indole-8-carboxylic Acid] | 1.6e-05 | 

Reference: patent publication US10981932B2, “Macrocyclic indole derivatives” (Bayer Aktiengesellschaft, priority 2016, dated 2021)
